Experimental findings from US4442044A, “Process for preparing monoesters and diesters of N-alkyl substituted amino methyl phosphonic acid” (priority 1983, dated 1984) are described below.

What all share (experiment): post-emergent herbicidal activity, greenhouse
What all share (type): in vivo
What all share (conditions): Table I

The test system of one assay is Canada Thistle. The source says: (§1) A good grade of top soil is placed in aluminum pans having holes in the bottom and compacted to a depth of 0.95 to 1.27 cm. from the top of the pan. A predetermined number of seeds of each of several dicotyledonous and monocotyledonous annual plant species and/or vegetative propagules for the perennial plant species were placed on the soil and pressed into the soil surface. The seeds and/or vegetative propagules are covered with soil and leveled. The pans are then placed on a sand bench in the greenhouse and watered from below as needed. After the plants reach the desired age (two to three weeks), each pan except for the control pans is removed individually to a spraying chamber and sprayed by means of an atomizer operating at a positive air pressure of approximately 1.46 kg/cm^2 absolute. The atomizer contains 6 ml. of a solution or suspension of the chemical. In that 6 ml., is an amount of a cyclohexanone emulsifying agent mixture to give a spray solution or suspension which contains about 0.4% by weight of the emulsifier. The spray solution or suspension contains a sufficient amount of the candidate chemical in order to give application rates corresponding to those set forth in the tables. The spray solution is prepared by taking an aliquot of a 1.0% by weight stock solution or suspension of the candidate chemical in an organic solvent such as acetone or tetrahydrofuran or in water. The emulsifying agent employed is a mixture comprising 35 weight percent butylamine dodecylbenzene sulfonate and 65 weight percent of a tall oil ethylene oxide condensate having about 11 moles of ethylene oxide per mole of tall oil. The pans are returned to the greenhouse and watered as before and the injury to the plants as compared to the control is observed at approximately two and four weeks as indicated in the tables under WAT and the results recorded. In some instances, the two-week observations are omitted.
(§2) The post-emergent herbicidal activity index used in Tables I and II is as follows: […]

The test system of another assay is Cocklebur.
Excerpt: as §1, §2

A further assay has as its system Smartweed.
Excerpt: as §1, §2

In a further assay the test system is Morningglory.
Excerpt: as §1, §2

Another assay deals with Barnyardgrass.
Excerpt: as §1, §2

In another assay the test system is Downy Brome.
Excerpt: as §1, §2

The subject of a further assay is Johnsongrass.
Excerpt: as §1, §2

The next assay deals with Velvetleaf.
Excerpt: as §1, §2

The next assay has as its system Lambsquarters.
Excerpt: as §1, §2

In the next assay the test system is Quackgrass.
Excerpt: as §1, §2

The test system of another assay is Yellow Nutsedge.
Excerpt: as §1, §2

On to `CCOC(=O)CNCP(=O)(OC(C)(C)C#N)OC(C)(C)C#N` [Example 2, glycine, N-[bis(1-cyano-1-methyl-ethoxy)phosphinylmethyl], ethyl ester], for which the “post-emergent herbicidal activity index” value with Canada Thistle (4 WAT, 56.0 kg/h) is on record as 4 (100% control); with Cocklebur (2 WAT, 5.6 kg/h) it was 0 (0-24% control); in the assay with Cocklebur (4 WAT, 11.2 kg/h), 0 (0-24% control); with Cocklebur (4 WAT, 56.0 kg/h), 1 (25-49% control); in the assay on Smartweed (2 WAT, 5.6 kg/h) it was 0 (0-24% control); in the assay on Smartweed (4 WAT, 11.2 kg/h), 0 (0-24% control). Further, the “post-emergent herbicidal activity index” value with Smartweed (4 WAT, 56.0 kg/h) is given as 1 (25-49% control); in the assay on Morningglory (2 WAT, 5.6 kg/h) it was 0 (0-24% control); with Morningglory (4 WAT, 11.2 kg/h), 0 (0-24% control); in the assay with Morningglory (4 WAT, 56.0 kg/h) it was 1 (25-49% control); with Barnyardgrass (2 WAT, 5.6 kg/h), 0 (0-24% control); in the assay with Barnyardgrass (4 WAT, 11.2 kg/h) it was 1 (25-49% control). The “post-emergent herbicidal activity index” value in the assay on Barnyardgrass (4 WAT, 56.0 kg/h) is reported as 0 (0-24% control); in the assay with Downy Brome (2 WAT, 5.6 kg/h) it was 0 (0-24% control); in the assay on Downy Brome (4 WAT, 11.2 kg/h), 0 (0-24% control); in the assay with Downy Brome (4 WAT, 56.0 kg/h) it was 0 (0-24% control); in the assay with Johnsongrass (2 WAT, 5.6 kg/h), 0 (0-24% control); in the assay with Johnsongrass (4 WAT, 11.2 kg/h) it was 0 (0-24% control). The “post-emergent herbicidal activity index” value in the assay with Johnsongrass (4 WAT, 56.0 kg/h) is recorded as 0 (0-24% control); in the assay on Velvetleaf (2 WAT, 5.6 kg/h) it was 0 (0-24% control); in the assay on Velvetleaf (4 WAT, 11.2 kg/h) it was 0 (0-24% control); with Velvetleaf (4 WAT, 56.0 kg/h) it was 0 (0-24% control); with Lambsquarters (2 WAT, 5.6 kg/h), 0 (0-24% control); in the assay on Lambsquarters (4 WAT, 11.2 kg/h), 0 (0-24% control). Moreover, the “post-emergent herbicidal activity index” value in the assay on Lambsquarters (4 WAT, 56.0 kg/h) is listed as 1 (25-49% control); in the assay on Quackgrass (2 WAT, 5.6 kg/h), 0 (0-24% control); in the assay with Quackgrass (4 WAT, 11.2 kg/h), 0 (0-24% control); in the assay on Quackgrass (4 WAT, 56.0 kg/h) it was 0 (0-24% control); in the assay with Yellow Nutsedge (2 WAT, 5.6 kg/h), 0 (0-24% control); with Yellow Nutsedge (4 WAT, 11.2 kg/h), 0 (0-24% control). Moreover, the “post-emergent herbicidal activity index” value with Yellow Nutsedge (4 WAT, 56.0 kg/h) is given as 0 (0-24% control).

For `C#CCNCP(=O)(OC(C)C#N)OC(C)C#N` (stereo not drawn) [Example 3, phosphonic acid, [(2-propnylamino)methyl]-,bis(1-cyanoethyl)ester], the “post-emergent herbicidal activity index” value with Canada Thistle (2 WAT, 11.2 kg/h) is 0 (0-24% control); in the assay with Cocklebur (2 WAT, 11.2 kg/h), 0 (0-24% control); in the assay on Smartweed (2 WAT, 11.2 kg/h), 1 (25-49% control); in the assay on Morningglory (2 WAT, 11.2 kg/h), 0 (0-24% control); in the assay with Barnyardgrass (2 WAT, 11.2 kg/h), 2 (50-74% control); with Downy Brome (2 WAT, 11.2 kg/h), 0 (0-24% control). Further, the “post-emergent herbicidal activity index” value is recorded as 0 (0-24% control) in the assay on Johnsongrass (2 WAT, 11.2 kg/h); 0 (0-24% control) in the assay with Velvetleaf (2 WAT, 11.2 kg/h); 0 (0-24% control) in the assay on Lambsquarters (2 WAT, 11.2 kg/h); 0 (0-24% control) with Quackgrass (2 WAT, 11.2 kg/h); 0 (0-24% control) with Yellow Nutsedge (2 WAT, 11.2 kg/h).

For `CC(C#N)OP(=O)(CNC(C)(C)C)OC(C)C#N` (stereo not drawn) [Example 4, phosphonic acid, [[(1,1-dimethylethyl)amino]methyl]-,bis(1-cyanoethyl) ester], the “post-emergent herbicidal activity index” value in the assay on Canada Thistle (2 WAT, 11.2 kg/h) is 0 (0-24% control); in the assay with Cocklebur (2 WAT, 11.2 kg/h) it was 0 (0-24% control); with Smartweed (2 WAT, 11.2 kg/h), 1 (25-49% control); in the assay with Morningglory (2 WAT, 11.2 kg/h) it was 0 (0-24% control); with Barnyardgrass (2 WAT, 11.2 kg/h), 1 (25-49% control); in the assay on Downy Brome (2 WAT, 11.2 kg/h) it was 0 (0-24% control). Besides, the “post-emergent herbicidal activity index” value in the assay on Johnsongrass (2 WAT, 11.2 kg/h) was 0 (0-24% control); in the assay on Velvetleaf (2 WAT, 11.2 kg/h) it was 0 (0-24% control); in the assay with Lambsquarters (2 WAT, 11.2 kg/h), 1 (25-49% control); with Quackgrass (2 WAT, 11.2 kg/h), 0 (0-24% control); in the assay on Yellow Nutsedge (2 WAT, 11.2 kg/h), 0 (0-24% control).

Turning to `N#CCCOP(=O)(CNCC#N)OCCC#N` [Example 11, phosphonic acid, [[(cyanomethyl)amino]-methyl],bis 2-(cyanoethyl)ester], the “post-emergent herbicidal activity index” value in the assay with Canada Thistle (2 WAT, 5.6 kg/h) is on record as 0 (0-24% control); in the assay with Canada Thistle (4 WAT, 11.2 kg/h) it was 2 (50-74% control); with Cocklebur (2 WAT, 5.6 kg/h), 0 (0-24% control); in the assay on Cocklebur (4 WAT, 11.2 kg/h), 1 (25-49% control); in the assay on Smartweed (2 WAT, 5.6 kg/h), 0 (0-24% control); with Smartweed (4 WAT, 11.2 kg/h), 1 (25-49% control). Further, the “post-emergent herbicidal activity index” value in the assay with Morningglory (2 WAT, 5.6 kg/h) is listed as 0 (0-24% control); in the assay on Morningglory (4 WAT, 11.2 kg/h) it was 2 (50-74% control); in the assay with Barnyardgrass (2 WAT, 5.6 kg/h), 0 (0-24% control); in the assay on Barnyardgrass (4 WAT, 11.2 kg/h), 1 (25-49% control); with Downy Brome (2 WAT, 5.6 kg/h), 0 (0-24% control); in the assay with Downy Brome (4 WAT, 11.2 kg/h), 0 (0-24% control). Moreover, the “post-emergent herbicidal activity index” value is given as 0 (0-24% control) with Johnsongrass (2 WAT, 5.6 kg/h); 0 (0-24% control) in the assay on Johnsongrass (4 WAT, 11.2 kg/h); 0 (0-24% control) in the assay on Velvetleaf (2 WAT, 5.6 kg/h); 0 (0-24% control) in the assay on Velvetleaf (4 WAT, 11.2 kg/h); 1 (25-49% control) in the assay on Lambsquarters (2 WAT, 5.6 kg/h); 1 (25-49% control) with Lambsquarters (4 WAT, 11.2 kg/h). Besides, the “post-emergent herbicidal activity index” value with Quackgrass (2 WAT, 5.6 kg/h) is 0 (0-24% control); with Quackgrass (4 WAT, 11.2 kg/h), 1 (25-49% control); with Yellow Nutsedge (2 WAT, 5.6 kg/h) it was 0 (0-24% control); in the assay with Yellow Nutsedge (4 WAT, 11.2 kg/h), 1 (25-49% control).
